Data published in US4279905A, “1-Benzoxepin-5 (2H)-one derivatives and pharmaceutical compositions” (Kali-Chemie Pharma GmbH, priority 1979, dated 1981).

Columns and labels:
gastric peristalsis = assay: Testing of the gastric peristalsis (gastric pressure, barium chloride-stimulated stomach of narcotized rats); format: in vivo; conditions: 20 mg/kg intraperitoneally, BaCl2 50 mg/kg/h i.v. infusion, compared with control value before compound; for Change in gastric pressure-wave amplitude: the values are: decrease in gastric amplitude; for change in vivo at 20 mg/kg: Rattus norvegicus, ip, read-out: Frequency Decrease in %
Excerpt: To determine the functioning of the gastric peristalsis, rats weighing about 200 g are narcotized by means of ketamine hydrochloride and xylazine. A catheter is introduced into the Vena jugularis of the narcotized rats and a tracheal catheter into the trachea. A stomach probe is inserted into their stomach and tied thereto. The probe is connected via a three-way cock with a Statham pressure imparting device (P 23 DB). The stomach is sealed off by a ligature at the pylorus and at the cardia. The stomach is filled with 3 ml of a 0.9% aqueous sodium chloride solution. The pressure waves produced by the stomach are continuously registered by a suitable recording device such by a Watanabe Multicorder (MC 641).
In conducting the test, a control value is obtained by inducing a stimulation of the stomach through a lengthy intravenous infusion of 50 mg/kg/h of bariumchloride and the amplitude and frequency of resultant pressure waves are measured. Subsequently, in order to determine the pharmacological effects, the compounds to be tested are dissolved in physiological sodium chloride solution or are suspended in Tylose MH 50 solution. The solutions or suspensions are then administered intraperitoneally to the rats in a dose of 20 mg/kg. The amplitudes and frequencies of the pressure wave-like movements of the stomach as they occur with the test solution and after administration of the compound to be tested, are compared.

[1] = Determination of acute toxicity (seven-day, single intraperitoneal dose); conditions: in vivo, ip, fasting white NMRI mouse, single dose i.p., probit analysis, read-out: LP50 i.p.
Method: The acute seven-day toxicity is determined by intraperitoneal administration of a single dose of the respective compound to a fasting white NMRI mouse. The LD50 -values are calculated via electronic data processing by a probit analysis as described in the book "Grundbegriffe der Biometrie" (Basic Biometrical Definitions) by L. Cavalli-Sforza, page 153 et seq., published by Gustav Fischer Verlag, Stuttgart, 1964.

| Compound | Change in gastric pressure-wave amplitude (gastric peristalsis) [%] | change in vivo at 20 mg/kg (gastric peristalsis) [%] | LD50 at 168 h [1] [mg/kg] |
| --- | --- | --- | --- |
| O=C1C=C(N2CCN(Cc3ccccc3)CC2)COc2ccccc21 [G, 3-(N-benzylpiperazino)-1-benzoxepin-5(2H)-one] | 31 | 10 | 634 |
| CNC1=CC(=O)c2cc(Cl)ccc2OC1 [N, 3-methylamino-7-chloro-1-benzoxepin-5(2H)-one] | 46 | -1 | – |
| O=C1C=C(NCCc2ccccc2)COc2ccccc21 [Compound F, 3-phenethylamino-1-benzoxepin-5(2H)-one] | 29 | -7 | – |
| CNC1=CC(=O)c2ccc(C(C)(C)C)cc2OC1 [M, 3-methylamino-8-tert.-butyl-1-benzoxepin-5(2H)-one] | 72 | 10 | – |
| CNC1=CC(=O)c2cc(C)ccc2OC1 [L, 3-methylamino-7-methyl-1-benzoxepin-5(2H)-one] | 75 | 15 | – |
| CNC1=CC(=O)c2ccccc2OC1 [A, 3-methylamino-1-benzoxepin-5(2H)-one] | 56 | -18 | 664 |
| CNC1=CC(=O)c2ccc(Cl)cc2OC1 [B, 3-methylamino-8-chloro-1-benzoxepin-5(2H)-one] | 58 | -16 | 450 |
| CCCCNC1=CC(=O)c2ccccc2OC1 [E, 3-(n-butylamino)-1-benzoxepin-5(2H)-one] | 26 | 36 | 442 |
| O=C1C=C(N2CCOCC2)COc2ccccc21 [H, 3-morpholino-1-benzoxepin-5(2H)-one] | 12 | 17 | 650 |
| COCCNC1=CC(=O)c2ccccc2OC1 [I, 3-(β-methoxyethylamino)-1-benzoxepin-5(2H)-one] | 46 | 11 | – |
| CC(C)NC1=CC(=O)c2ccccc2OC1 [C, 3-isopropylamino-1-benzoxepin-5(2H)-one] | 32 | -2 | 544 |
| NC1=CC(=O)c2ccccc2OC1 [D, 3-amino-1-benzoxepin-5(2H)-one] | 45 | -12 | 544 |
| CNC1=CC(=O)c2cc(F)ccc2OC1 [O, 3-methylamino-7-fluoro-1-benzoxepin-5(2H)-one] | 37 | 1 | – |
| CNC1=CC(=O)c2ccc(C)cc2OC1 [K, 3-methylamino-8-methyl-1-benzoxepin-5(2H)-one] | 55 | 4 | – |
